Data taken from patent US9791444B2, “Method for differentially quantifying naturally processed HLA-restricted peptides for cancer, autoimmune and infectious diseases immunotherapy development” (IMMATICS BIOTECHNOLOGIES GMBH, priority 2010, dated 2017).

Tested on: CD8+ T cells from HLA-A*24 healthy donors
Assay: In vitro immunogenicity: in vitro priming of CD8+ T cells with pMHC/anti-CD28 coated beads (aAPC), A*2402 multimer staining
Assay type: cell-based, human
Conditions: HLA-A*2402 restricted, three stimulation cycles; for Positive wells/wells tested [%]: at least 24 wells evaluable for each peptide, positive well = at least 1% specific multimer+ among CD8+ and at least 10x median of negative controls; for Positive donors/donors tested [%]: at least two donors evaluable for each peptide
Excerpt: To get information regarding the immunogenicity of the TUMAPs of the present invention, we performed investigations using a well established in vitro stimulation platform already described by (Walter, S, Herrgen, L, Schoor, O, Jung, G, Wernet, D, Buhring, H J, Rammensee, H G, and Stevanovic, S; 2003, Cutting edge: predetermined avidity of human CD8 T cells expanded on calibrated MHC/anti-CD28-coated microspheres, J. Immunol., 171, 4974-4978).
In order to perform in vitro stimulations by artificial antigen presenting cells (aAPC) loaded with peptide-MHC complex (pMHC) and anti-CD28 antibody, we first isolated CD8 T cells from fresh HLA-A*24 leukapheresis products of healthy donors obtained from the Blood Bank Tuebingen.
CD8 T cells were either directly enriched from the leukapheresis product or PBMCs (peripheral blood mononuclear cells) were isolated first by using standard gradient separation medium (PAA, Cölbe, Germany). Isolated CD8 lymphocytes or PBMCs were incubated until use in T-cell medium (TCM) consisting of RPMI-Glutamax (Invitrogen, Karlsruhe, Germany) supplemented with 10% heat inactivated human AB serum (PAN-Biotech, Aidenbach, Germany), 100 U/ml Penicillin/100 μg/ml Streptomycin (Cambrex, Cologne, Germany), 1 mM sodium pyruvate (CC Pro, Oberdorla, Germany), 20 μg/ml Gentamycin (Cambrex). 2.5 ng/ml IL-7 (PromoCell, Heidelberg, Germany) and 10 U/ml IL-2 (Novartis Pharma, Nürnberg, Germany) were also added to the TCM at this step. Isolation of CD8+ lymphocytes was performed by positive selection using CD8 MicroBeads (Miltenyi Biotec, Bergisch-Gladbach, Germany).
Generation of pMHC/anti-CD28 coated beads, T-cell stimulations and readout was performed as described before (Walter et al. 4974-78) with minor modifications. Briefly, biotinylated peptide-loaded recombinant HLA-A*2402 molecules lacking the transmembrane domain and biotinylated at the carboxy terminus of the heavy chain were produced. The purified costimulatory mouse IgG2a anti human CD28 Ab 9.3 (Jung, Ledbetter, and Muller-Eberhard 4611-15) was chemically biotinylated using Sulfo-N-hydroxysuccinimidobiotin as recommended by the manufacturer (Perbio, Bonn, Germany).
800.000 beads/200 μl were coated in 96-well plates in the presence of 600 ng biotin anti-CD28 plus 200 ng relevant biotin-pMHC (high density beads). Stimulations were initiated in 96-well plates by co-incubating 1×10^6 CD8+ T cells with 2×10^5 washed coated beads in 200 μl TCM supplemented with 5 ng/ml IL-12 (PromoCell) for 3-4 days at 37° C. Half of the medium was then exchanged by fresh TCM supplemented with 80 U/ml IL-2 and incubating was continued for 3-4 days at 37° C. This stimulation cycle was performed for a total of three times. Finally, multimeric analyses were performed by staining the cells with Live/dead-Aqua dye (Invitrogen, Karlsruhe, Germany), CD8-FITC antibody clone SK1 (BD, Heidelberg, Germany) and PE- or APC-coupled A*2402 MHC multimers. For analysis, a BD LSRII SORP cytometer equipped with appropriate lasers and filters was used. Peptide specific cells were calculated as percentage of total CD8+ cells. Evaluation of multimeric analysis was done using the FlowJo software (Tree Star, Oreg., USA).

Sequence	Positive wells/wells tested [%]	Positive donors/donors tested [%]
AYAIIKEEL (listed as Homo sapiens) [ATAD2-001]	4	50
AYLVYTDRL (listed as Homo sapiens) [PPAP2C-001]	54	100
FYISPVNKL (listed as Homo sapiens) [AVL9-001]	50	100
HYKPTPLYF (listed as Homo sapiens) [SMC4-001]	9	75
IYNGKLFDLL (listed as Homo sapiens) [KIF2C-001]	2	13
KYNDTFWKEF (listed as Homo sapiens) [HSP90B1-001]	4	50
LYQILQGIVF (listed as Homo sapiens) [CDC2-001, gastric cancer associated TUMAP encoded by CDK1]	28	88
NYEETFPHI (listed as Homo sapiens) [MUC6-001]	21	50
NYLLYVSNF [MMP11-001]	11	33
NYLLYVSNF [MST1R-001] (listed as Homo sapiens)	14	50
NYLPFIMEL (listed as Homo sapiens) [UCHL5-001]	14	75
QYASRFVQL (listed as Homo sapiens) [PLK4-001]	5	60
RFLSGIINF (listed as Homo sapiens) [NUF2-002]	4	50
RYLWATVTI (listed as Homo sapiens) [ASPM-001]	3	17
SYIDVLPEF (listed as Homo sapiens) [MET-006]	22	63
SYNPLWLRI (listed as Homo sapiens) [ASPM-002, gastric cancer associated TUMAP encoded by ASPM]	31	63
TYGNLLDYL (listed as Homo sapiens) [ABL1-001]	13	50
VFDTAIAHLF (listed as Homo sapiens) [SIAH2-001]	4	50
VFIFKGNQF (listed as Homo sapiens) [MMP3-001]	1	13
VWSDVTPLTF [PROM1-001]	26	83
VYGIRLEHF (listed as Homo sapiens) [NUF2-001]	25	100
VYIEKNDKL (listed as Homo sapiens) [ERBB3-001]	15	83
VYKVVGNLL (listed as Homo sapiens) [IQGAP3-001]	24	100
VYTTSYQQI (listed as Homo sapiens) [NFYB-001]	7	50
YYNAAGFNKL (listed as Homo sapiens) [UQCRB-001]	38	100
